# Assay results taken from patent US12662707B2, “MYC amplification drives resistance to pan-RAS inhibitors in pancreatic cancer” (The Trustees of Columbia University in the City of New York, priority 2024, dated 2026).
# Experiments:
# [1] = Pharmacokinetics in KPF/FC mice (tumor and blood); format: in vivo, mouse
# Procedure: Tumor formation in KPF/FC (KrasLSL.G12D/+; p53flox/flox; Pdx1-Cre) mice was monitored by bi-weekly palpations until the detection of a mass, which was then confirmed by ultrasound. Tumor-bearing mice were randomized and assigned into groups (n=3/dose/timepoint). Single dose of RMC-7977 was administered orally at 10 mg/kg, 25 mg/kg and 50 mg/kg. The same vehicle formulation was used for the control group. Whole blood and tissue (tumors and colons) were harvested at indicated time points preserved as previously described (See Xenograft studies section).
# Whole blood, tumor, colon and skin tissue concentrations of RMC-7977 were determined using liquid chromatography-tandem mass spectrometry (LC-MS/MS) methods. Tissue samples were homogenized with a 5× or 10× volume of homogenization buffer (methanol/15 mM PBS (1:2; v:v) or 15 mM PBS with 10% methanol). […] After thorough mixing and centrifugation, the supernatant was directly analyzed on a Sciex 6500+ triple quadrupole mass spectrometer equipped with an ACQUITY or Shimadzu UPLC system. […] RMC-7977 and IS (verapamil or terfenadine) were detected by positive electrospray ionization using multiple reaction monitoring (RMC-7977: m/z 865.4/706.4 or m/z 865.3/833.5; verapamil: m/z 455.2/164.9; terfenadine: m/z 472.3/436.4). The lower limit of quantification was 0.5 ng/mL or 2.0 ng/mL for blood, tumor, and other tissue. […]
# [2] = system: KPC tumor-derived cell lines; experiment: Viability of cell lines from RMC-7977 resistant or naive KPC tumors; format: cell-based, murine
# From the text: Patient-derived xenograft (PDX) human PDAC cell lines were provided by Dr. Anirban Maitra (MD Anderson Cancer Center): Pa01C, Pa02C, Pa14C, and Pa16C. hF39 and hF43 cell lines were provided by Dr. David Tuveson (Cold Spring Harbor Laboratory). The UM147 PDX cell line was obtained from University of Michigan (PMID: 17283135). PaCaDD-137 and PaCaDD-165 were obtained from the German Collection of Microorganisms and Cell Cultures GmbH (DSMZ, world wide web dsmz.de/). All remaining cell lines were obtained from the American Type Culture Collection (ATCC). […]
# PDAC murine cell lines harboring KrasG12D or KrasG12C mutations were seeded at 2×10^3 in a 96-well plate. […] Cell viability was evaluated 72 hours later by measuring adenosine triphosphate (ATP) levels using the CellTiter-Glo® Luminescent Cell Viability Assay (Promega, G7572) according to the manufacturer's instructions. For experiments comparing naive and resistant cell lines, live cells were fluorescently labelled using Calcein AM (20-minute incubation at 500 nM, Thermo Fisher) and counted using the SpectraMax i3X multimode detection platform (Molecular Devices). […] Growth percentage was calculated by normalizing drug-treated values to DMSO control, which was set to 100%. […]
# Myc protein levels = experiment: Western blot of Myc in resistant and naive KPC cell lines; format: cell-based, murine; settings: 100 nM, 24 hours
# Procedure: Cells were seeded at 7.5×10^5-4×10^6 cells per well in 6-well plates or 100 mm dishes in growth medium. After overnight incubation, indicated compound (RMC-7977, IAG933 or DMSO (0.1% v/v)) were added and incubated for the indicated time points. Cells were washed twice with ice-cold PBS and lysed with NP-40 lysis buffer (Thermo Fisher Scientific, J60766), MSD Tris Lysis Buffer (MSD, R60TX-2), RIPA buffer (50 mM TRIS-HCl, pH 7.5, 150 mM NaCl, 1% NP-40, 0.5% sodium deoxycholate, 0.1% SDS) or a lysis buffer containing 1% Triton X-100, 20 mM Tris-HCl, 150 mM NaCl, and 1 mM EDTA. All lysis buffers were supplemented with protease and phosphatase inhibitors. Lysates were scraped and collected before centrifugation at 21,000×g for 10 minutes at 4° C. The protein-containing supernatants were quantified by BCA assay (Pierce, 23225) and equal quantities of protein were denatured with LDS and reducing agent at 95° C. Samples were resolved on 12% or 4-12% Bis-Tris polyacrylamide gels, then transferred to a nitrocellulose or PVDF membrane using the iBlot 2.0 system or wet transfer. Membranes were blocked in Intercept TBS buffer (LiCor, 927-60001) or 3-5% milk before probing with primary antibodies overnight at 4° C. Secondary antibodies were added as appropriate, and the membranes were imaged on a LiCor Odyssey imager. […]
smiles,measurement,setting,value
CCn1c(-c2cc(N3CCN(C4CC4)CC3)cnc2[C@H](C)OC)c2c3cc(ccc31)-c1csc(n1)C[C@H](NC(=O)[C@H]1[C@@H]3COC[C@@H]31)C(=O)N1CCC[C@H](N1)C(=O)OCC(C)(C)C2 [RMC-7977],exposure in blood and PDAC tumors compared with CDX tumor-bearing BALB/c mice,[1]; KPF/FC mice,lower
same,half-life (t1/2) in KPF/FC tumors compared to CDX tumors,[1]; KPF/FC tumors,shorter half-life
same,sensitivity of treatment-naive MycGain line K2293,[2]; K2293,lower sensitivity
same,sensitivity of lines from resistant tumors vs control KPC cell line (K8484),"[2]; all six lines from resistant tumors, 3-5 days",less sensitive
same,Myc protein levels,Myc protein levels; two RMC-7977 Naive lines,fully inhibited
same,Myc protein levels,Myc protein levels; two Resistant lines,incompletely reduced
